Source: patent US20260285853A1, “COMPOUNDS AND METHODS FOR MODULATING SPLICING” (REMIX THERAPEUTICS INC., priority 2023, published 2026)
pIC50: −log10 of the molar value. Read-outs that look alike come from different tables or passages of the source.

Columns and labels:
Type in all cases: cell-based
HTT mRNA [1] = assay: Splicing RT-qPCR assay (THP), Table 2A
HTT mRNA [2] = assay: Gene panel canonical junction qPCR assay, decrease in CJ mRNA, Table 3
How it was run: (§1)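 A673 cells were plated, left to adhere for 24 h, then dosed; K562 cells were plated in 96- or 384-well format and dosed directly. Both were incubated 24 h at 37 °C with an 11-point 3-fold series (top 10 uM final). Canonical junction mRNA was then read by cDNA synthesis and qPCR.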

MYB mRNA [3] = assay: as above
How it was run: as §1

MYB mRNA [4] = assay: Splicing RT-qPCR assay (THP), Table 2A
[5] = tested on: SH-SY5Y (human neuroblastoma) cells; assay: Cell viability, Cell Titer Glo 2.0 assay; conditions: read-out: Viability SHSY5Y.3 GI50
How it was run: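 SH-SY5Y neuroblastoma cells are exposed to test compounds for 72 hours at 37 °C and 5% CO2, with final DMSO held at 0.1%. Cell viability is then measured with the CellTiter-Glo 2.0 assay.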

[6] = Table 2A, THP, HTT alternative junction (AJ) mRNA, read-out: HTT AJ (AC50, increase in alternative junction mRNA)
[7] = Table 2A, THP, HTT canonical junction (CJ) mRNA, read-out: HTT CJ (IC50, decrease in canonical junction mRNA)
[8] = decrease in CJ mRNA levels, canonical junction qPCR, gene panel
[9] = Table 2A, THP, MYB alternative junction (AJ) mRNA, read-out: MYB AJ (AC50, increase in alternative junction mRNA)
[10] = Table 2A, THP, MYB canonical junction (CJ) mRNA, read-out: MYB CJ (IC50, decrease in canonical junction mRNA)
[11] = Table 2A (THP), AJ mRNA increase, read-out: HTT AJ (increase in alternative junction mRNA, AC50)
[12] = Table 2A (THP), CJ mRNA decrease, read-out: HTT CJ (decrease in canonical junction mRNA, IC50)
[13] = decrease in canonical junction (CJ) mRNA, gene panel qPCR, Table 3
[14] = Table 2A (THP), AJ mRNA increase, read-out: MYB AJ (increase in alternative junction mRNA, AC50)
[15] = Table 2A (THP), CJ mRNA decrease, read-out: MYB CJ (decrease in canonical junction mRNA, IC50)

SMILES | pIC50 (HTT mRNA [1]; [7]) | pIC50 (HTT mRNA [2]; [8]) | pIC50 (MYB mRNA [3]; [8]) | pIC50 (MYB mRNA [4]; [10]) | GI50 [5] | pIC50 (HTT mRNA [1]; [12]) | pIC50 (HTT mRNA [2]; [13]) | pIC50 (MYB mRNA [3]; [13]) | pIC50 (MYB mRNA [4]; [15]) | AC50 (HTT mRNA [1]; [6]) | AC50 (MYB mRNA [4]; [9]) | AC50 (HTT mRNA [1]; [11]) | AC50 (MYB mRNA [4]; [14])
CCNC1CCN(c2ccc(C(=O)Nc3cn4cc(C)nc(C)c4n3)n3nc(C)cc23)CC1 [Compound 615, N-(6,8-dimethylimidazo[1,2-a]-pyrazin-2-y1)-4-[4-(ethylamino)-1-piperidyl]-2-methyl-pyrazolo[1,5-a]-pyridine-7-carboxamide] | 5.00 to 6.00 | 5.00 to 6.00 | 6.00 to 7.00 | 6.00 to 7.00 | 1000 to 10000 nM |  |  |  |  | 1000 to 10000 nM | 1000 to 10000 nM |  | 
CCNC1CCN(c2ccc(C(=O)Nc3cc(CC(=O)NC)c4nc(C)cn4c3)c3nn(C)cc23)CC1 [Compound 341, 4-(4-(ethylamino)piperidin-1-yl)-2-methyl-N-(2-methyl-8-(2-(methylamino)-2-oxoethyl)imidazo[1,2-a]-pyridin-6-yl)-2H-indazole-7-carboxamide bis(2,2,2-trifluoroacetate)] |  |  |  |  | > 10000 nM | 5.00 to 6.00 | 5.00 to 6.00 | < 5.00 | < 5.00 |  |  | > 10000 nM | 1000 to 10000 nM
CCNC1CCN(c2ccc(C(=O)Nc3cn(C)c(=O)cc3OC)c3nn(C)cc23)CC1 [Compound 560, 4-[4-(ethylamino)-1-piperidyl]-N-(4-methoxy-1-methyl-6-oxo-3-pyridyl)-2-methyl-indazole-7-carboxamide] |  |  |  |  | > 10000 nM | < 5.00 | < 5.00 | 5.00 to 6.00 | 5.00 to 6.00 |  |  | > 10000 nM | > 10000 nM
Cc1cn2cc(NC(=O)c3ccc(OC4CCNC4)c4cn(C)nc34)nc2c(C)n1 (stereo not shown) [Compound 537] |  |  |  |  | > 10000 nM | < 5.00 | < 5.00 | < 5.00 | < 5.00 |  |  | > 10000 nM | > 10000 nM
CNC1CCC(Oc2ccc(C(=O)Nc3cn4cc(C)nc(C)c4n3)c3nn(C)cc23)C1 (stereo not shown) [Compound 594] |  |  |  |  | > 10000 nM | < 5.00 | < 5.00 | < 5.00 | < 5.00 |  |  | > 10000 nM | > 10000 nM

Further lines, with some results ahead:

pIC50 (HTT mRNA [1]; [7]) | pIC50 (HTT mRNA [2]; [8]) | pIC50 (MYB mRNA [3]; [8]) | pIC50 (MYB mRNA [4]; [10]) | GI50 [5] | pIC50 (HTT mRNA [1]; [12]) | pIC50 (HTT mRNA [2]; [13]) | pIC50 (MYB mRNA [3]; [13]) | pIC50 (MYB mRNA [4]; [15]) | SMILES | AC50 (HTT mRNA [1]; [6]) | AC50 (MYB mRNA [4]; [9]) | AC50 (HTT mRNA [1]; [11]) | AC50 (MYB mRNA [4]; [14])
5.00 to 6.00 | 5.00 to 6.00 | > 7.00 | > 7.00 | 100 to 1000 nM |  |  |  |  | C[C@H]1CN(c2ccc(C(=O)Nc3cc(F)c4nn(C)cc4c3)c3nc(CN)sc23)C[C@H](C)N1 [Compound 707, 2-(aminomethyl)-7-[(3S,5S)-3,5-dimethylpiperazin-1-yl]-N-(7-fluoro-2-methyl-indazol-5-yl)-1,3-benzothiazole-4-carboxamide] | 100 to 1000 nM | < 100 nM |  | 
< 5.00 | < 5.00 | < 5.00 | < 5.00 | > 10000 nM |  |  |  |  | CCNC1C(C)CN(c2ccc(C(=O)Nc3cn4cc(C)nc(C)c4n3)c3nn(C)cc23)CC1C (stereo not shown) [Compound 686] | > 10000 nM | > 10000 nM |  | 
5.00 to 6.00 | 5.00 to 6.00 | 5.00 to 6.00 | 5.00 to 6.00 | 1000 to 10000 nM |  |  |  |  | CCNC1CCN(c2ccc(C(=O)Nc3cc(CNS(C)(=O)=O)c4nn(C)cc4c3)c3nn(C)cc23)CC1 [Compound 798, 4-[4-(ethylamino)-1-piperidyl]-N-[7-(methanesulfonamidomethyl)-2-methyl-indazol-5-yl]-2-methyl-indazole-7-carboxamide] | 1000 to 10000 nM | 1000 to 10000 nM |  | 
6.00 to 7.00 | 6.00 to 7.00 | > 7.00 | > 7.00 | 100 to 1000 nM |  |  |  |  | COc1nc2c(C(=O)Nc3cc(F)c4nn(C)cc4c3)ccc(N3CCN(C)CC3)c2s1 [Compound 789] | 100 to 1000 nM | < 100 nM |  | 
6.00 to 7.00 | 6.00 to 7.00 | > 7.00 | > 7.00 | 100 to 1000 nM |  |  |  |  | CNC1CN(c2ccc(C(=O)Nc3cc(F)c4nn(C)cc4c3)c3nc(OC)sc23)C1 [Compound 749, N-(7-fluoro-2-methyl-indazol-5-yl)-2-methoxy-7-[3-(methylamino)azetidin-1-yl]-1,3-benzothiazole-4-carboxamide] | 100 to 1000 nM | 100 to 1000 nM |  | 
